For 2 compounds, MIC and Activity results are on record in ChEMBL document CHEMBL1255428, “Characterization of UDP-glucose dehydrogenase and UDP-glucose pyrophosphorylase mutants of Proteus mirabilis: defectiveness in polymyxin B resistance, swarming, and virulence” (2010).

Activity calls are given as the source filed them. The rule behind the calls is not given here.

For assay [1], the system named is Proteus mirabilis. Put plainly: Antimicrobial activity against wild type Proteus mirabilis N2 after 16 to 18 hrs by broth micro dilution assay. It is filed as functional.
Assay [2] relates to Proteus mirabilis. Put plainly: Antimicrobial activity against Proteus mirabilis dU2 knockout mutant after 16 to 18 hrs by broth micro dilution assay. It is filed as functional.
In assay [3] the test system is Proteus mirabilis. Put plainly: Antimicrobial activity against Proteus mirabilis dG1 knockout after 16 to 18 hrs by broth micro dilution assay. Format: functional.
Assay [4] relates to Proteus mirabilis. As to the kind of experiment: Antimicrobial activity against Proteus mirabilis dU2 knockout mutant transformed with pACYC184-ugd after 16 to 18 hrs by broth micro dilution assay. It is filed as functional.
In assay [5] the test system is Proteus mirabilis. As to the kind of experiment: Antimicrobial activity against Proteus mirabilis dG1 knockout mutant transformed with pACYC184-galU after 16 to 18 hrs by broth micro dilution assay. It is filed as functional.
Assay [6] concerns Proteus mirabilis. Put plainly: Induction of Ugd expression in wild type Proteus mirabilis N2 at 1 ug/ml by real-time RT-PCR analysis. It is filed as functional, organism-based. On the technique in general: In qPCR the cycle at which signal appears reflects the starting amount.
For assay [7], the system named is Proteus mirabilis. Put plainly: Induction of Ugd expression in Proteus mirabilis dA10 rppA knockout mutant at 1 ug/ml by real-time RT-PCR analysis. Format: functional, organism-based.
Assay [8] deals with Proteus mirabilis. Put plainly: Induction of Ugd expression in wild type Proteus mirabilis dA10c RppA-complemented strain at 1 ug/ml by real-time RT-PCR analysis. It is filed as functional, organism-based.

Regarding `CCCCCCCCCCCCOS(=O)(=O)[O-].[Na+]` [SODIUM LAURYL SULFATE], the MIC with Proteus mirabilis [1] was 2000 µg/mL; in the assay with Proteus mirabilis [2], 500 µg/mL; against Proteus mirabilis [3], 500 µg/mL; in the assay on Proteus mirabilis [4], 2000 µg/mL; with Proteus mirabilis [5] it was 2000 µg/mL.

POLYMYXIN B: the MIC against Proteus mirabilis [2] came to 2 µg/mL; in the assay on Proteus mirabilis [3], 4 µg/mL. Further, the result in the assay with Proteus mirabilis [6] and with Proteus mirabilis [7] was Active. For the same compound, the result with Proteus mirabilis [8] was inactive.

What is called MIC is the lowest concentration found to suppress growth. Read a low MIC as greater potency.
